Reference: publication PMC9181126, “Design, Synthesis, Molecular Docking Analysis and Biological Evaluations of 4-[(Quinolin-4-yl)amino]benzamide Derivatives as Novel Anti-Influenza Virus Agents” (International Journal of Molecular Sciences, 2022)

Experiments:
[1] = system: influenza virus A/WSN/33 (H1N1); assay: microbe, parasite or virus in culture; type: cell-based; conditions: MDCK, 72 h; for inhibition at 12.5 µM / inhibition at 25 µM / inhibition at 50 µM / inhibition at 100 µM: H1N1|WSN, read-out: Antiviral activity in CPE assay; for EC50: read-out: Cytopathic Effect Assay (A/WSN/33, H1N1) EC50
MDCK cells = assay: in vitro; type: cell-based, canine; conditions: dog, 72 h
Description: (§1) The 3-(4,5-dimethylthiazol-2-yl)-2,5-diphenyltetrazolium bromide (MTT) method was performed to assess the cytotoxicity of target compounds in MDCK cells and HEK293T cells. Firstly, MDCK cells or HEK293T cells were seeded into the 96-well plate. Then, the media containing test compounds replaced the growth media after 48 h. Incubate MDCK cells or HEK293T cells with test compounds for 72 h at 37 °C in a humidified 5% CO2 incubator. Later, MTT solution (5 mg/mL in PBS) was added into each well and plates were incubated for 4 h at 37 °C. Then, add a solubilization solution to lyse cells. Finally, absorbance was read at 620 nm using an ELISA plate reader (Tecan Sunrise) after 3 h of further incubation at 37 °C. We set the values obtained from the wells treated with only DMSO as 100% of viable cells.

in vitro [2] = type: cell-based, canine; conditions: dog
Description: as §1

[3] = system: influenza virus A/WSN/33 (H1N1); assay: Plaque inhibition assay in MDCK cells; type: cell-based; conditions: for inhibition at 100 µM: concentration 100 µM
HEK293T cells = assay: in vitro; type: cell-based; conditions: human, 72 h
Description: as §1

in vitro [4] = type: cell-based; conditions: human
Description: as §1

[5] = molecular target: ribonucleoprotein (RNP) of influenza virus (Influenza A virus, UniProt P15659); assay: cell-based; conditions: HEK-293T, read-out: RNP Reconstitution Assay Inhibition Rate; for inhibition at 100 µM: concentration 100 µM; for inhibition at 12.5 µM: concentration 12.5 µM
[6] = MDCK, read-out: Plaque Inhibition Assay (A/WSN/33, H1N1) Inhibition Rate

Structure (SMILES)	inhibition at 12.5 µM [1] [%]	inhibition at 25 µM [1] [%]	inhibition at 50 µM [1] [%]	inhibition at 100 µM [1] [%]	EC50 [1] [µM]	MDCK cells survival rate (MDCK cells; 12.5 µmol·L−1) [%]	MDCK cells survival rate (MDCK cells; 25 µmol·L−1) [%]	MDCK cells survival rate (MDCK cells; 50 µmol·L−1) [%]	MDCK cells survival rate (MDCK cells; 100 µmol·L−1) [%]	CC50 at 72 h (in vitro [2]) [µM]	inhibition at 100 µM [3, 6] [%]	melting point [°C]	HEK293T cells survival rate (HEK293T cells; 3.125 µmol·L−1) [%]	HEK293T cells survival rate (HEK293T cells; 6.25 µmol·L−1) [%]	HEK293T cells survival rate (HEK293T cells; 12.5 µmol·L−1) [%]	HEK293T cells survival rate (HEK293T cells; 25 µmol·L−1) [%]	HEK293T cells survival rate (HEK293T cells; 50 µmol·L−1) [%]	HEK293T cells survival rate (HEK293T cells; 100 µmol·L−1) [%]	CC50 at 72 h (in vitro [4]) [µM]	inhibition at 100 µM [5] [%]	also measured
O=C(NCCCO)c1ccc(Nc2ccnc3cc(C(F)(F)F)ccc23)cc1 [Compound G05, N-(3-Hydroxypropyl)-4-{[7-(trifluoromethyl)quinolin-4-yl]amino}benzamide]	42 ± 5.5	48.6 ± 2.31	50.2 ± 1.8	56 ± 4.37	40.9 ± 5.64	113.26±1.76	110.22±4.44	101.63±4.85	111.87±2.49	> 100	82.9	249.6 to 250.4	106.06±4.46	109.11±25.17	96.82±2.21	95.07±1.76	93.06±1.61	122.90±10.09	> 100	17.6	–
O=C(NCCO)c1ccc(Nc2ccnc3cc(C(F)(F)F)ccc23)cc1 [Compound G04, N-(2-Hydroxyethyl)-4-{[7-(trifluoromethyl)quinolin-4-yl]amino}benzamide]	55.3 ± 4.28	54.6 ± 4.19	57.1 ± 9.3	49.3 ± 0.74	> 100	118.54±1.29	110.54±13.59	126.43±7.03	124.89±12.49	> 100	59.3	262.5 to 264.1	112.00±4.22	100.01±1.56	94.50±4.33	91.99±5.43	98.62±11.78	96.30±10.52	> 100	14	–
O=C(c1ccc(Nc2ccnc3cc(C(F)(F)F)ccc23)cc1)N1CCOCC1 [Compound G12, Morpholino{4-{[7-(trifluoromethyl)quinolin-4-yl]amino}phenyl}methanone]	70.9 ± 4.82	97.6 ± 3.67	75.7 ± 9.49	76.7 ± 5.27	> 100	92.77±4.37	137.81±3.21	130.46±5.65	120.48±10.37	> 100	< 10	277.9 to 278.7	100.47±5.92	89.50±2.30	86.67±6.98	88.50±7.54	80.68±3.36	74.00±4.57	> 100	50	–
O=C(c1ccc(Nc2ccnc3cc(C(F)(F)F)ccc23)cc1)N1CCN(c2ccc(Cl)cc2)CC1 [Compound G17, [4-(4-Chlorophenyl)piperazin-1-yl]{4-{[7-(trifluoromethyl)quinolin-4-yl]amino}phenyl}methanone]	33.5 ± 1.23	27.3 ± 3.16	21.1 ± 1.62	28.5 ± 7.81	> 100	71.49±1.03	65.78±1.15	63.22±11.25	51.32±5.29	> 100	73.5	242 to 242.9	86.81±4.81	89.66±6.31	78.02±11.06	62.61±12.04	52.36±1.02	59.17±1.33	> 100	–	inhibition at 12.5 µM [5]: 40.2%
CCNC(=O)c1ccc(Nc2ccnc3cc(C(F)(F)F)ccc23)cc1 [Compound G01, N-Ethyl-4-{[7-(trifluoromethyl)quinolin-4-yl]amino}benzamide]	48 ± 4.04	56.6 ± 3.96	53 ± 4.28	70.9 ± 2.63	16.5 ± 5.57	123.45±5.51	112.08±3.35	121.65±8.73	160.62±4.70	> 100	81.6	262.8 to 264.5	91.00±7.40	90.01±2.87	93.22±5.27	92.83±4.26	88.18±3.27	94.92±8.61	> 100	21	–
COc1ccccc1OCCNC(=O)c1ccc(Nc2ccnc3ccccc23)cc1 [Compound G19, N-{2-(2-Methoxyphenoxy)ethyl}-4-(quinolin-4-ylamino)benzamide]	131 ± 11.1	132 ± 4.75	138 ± 9.95	122 ± 5.08	< 10	90.89±5.31	93.23±8.08	102.17±1.95	111.55±9.83	> 100	82.3	319.5 to 320.2	103.14±6.28	103.54±9.29	103.11±7.45	97.97±3.74	97.40±3.36	112.18±7.45	> 100	13.9	–
Cc1onc(-c2ccccc2)c1C(=O)N1CCN(c2ccc([N+](=O)[O-])cc2Cl)CC1 [nucleozin, reference compound]	–	–	–	–	0.21 ± 0.15	–	–	–	–	–	99.5	–	–	–	–	–	–	–	–	92.9	IC50 ([3]; MDCK cells): 0.15 ± 0.11 µM
COc1ccccc1OCCNC(=O)c1ccc(Nc2ccnc3cc([N+](=O)[O-])ccc23)cc1 [Compound G23, N-[2-(2-Methoxyphenoxy)ethyl]-4-[(7-nitroquinolin-4-yl)amino]benzamide]	146 ± 3.38	143 ± 6.11	119.8 ± 0.68	119 ± 7.71	< 10	101.22±6.39	106.22±9.35	100.33±3.53	91.28±3.45	> 100	77.9	217 to 218.5	93.57±3.31	96.34±4.31	95.29±3.05	89.02±3.47	96.62±7.74	88.11±4.02	> 100	56.6	–
COc1ccccc1OCCNC(=O)c1ccc(Nc2ccnc3c(C)cccc23)cc1 [Compound G20, N-[2-(2-Methoxyphenoxy)ethyl]-4-[(8-methylquinolin-4-yl)amino]benzamide]	72 ± 6.36	28.6 ± 1.61	30.9 ± 0.88	31.1 ± 0.49	> 100	45.97±9.1	8.61±0.42	8.88±0.51	8.66±0.17	< 10	–	150.2 to 151.7	96.66±8.01	91.48±3.65	94.07±9.07	87.46±21.36	80.21±1.35	60.29±0.35	> 100	–	inhibition at 6 µM ([3]; MDCK, concentration 6 µM, read-out: Plaque Inhibition Assay (A/WSN/33, H1N1) Inhibition Rate): 74.3%; inhibition at 12.5 µM [5]: 6.69%
